From ChEMBL document CHEMBL3734729, “Synthesis and comparison of the biological activity of monocyclic phosphonate, difluorophosphonate and phosphate analogs of the natural AChE inhibitor cyclophostin” (Bioorg Med Chem, 2015)

Experiments:
Acetylcholinesterase [1] = molecular target: T1, Acetylcholinesterase (Homo sapiens, UniProt P22303); test: Inhibition of human AChE at pH 8
Acetylcholinesterase [2] = molecular target: T1, Acetylcholinesterase; test: Inhibition of human AChE at pH 6
[3] = Drug degradation in sodium phosphate buffer at pH 8 after 30 mins by NMR analysis; format: physicochemical; conditions: read-out: Drug degradation
[4] = Drug degradation in sodium phosphate buffer at pH 8 after 1 hr by NMR analysis; format: physicochemical; conditions: read-out: Drug degradation
[5] = Drug degradation in sodium phosphate buffer at pH 8 after 24 hrs by NMR analysis; format: physicochemical; conditions: read-out: Drug degradation
[6] = Drug degradation in sodium phosphate buffer at pH 7 after 30 mins by NMR analysis; format: physicochemical; conditions: read-out: Drug degradation
[7] = Drug degradation in sodium phosphate buffer at pH 7 after 1 hr by NMR analysis; format: physicochemical; conditions: read-out: Drug degradation
[8] = Drug degradation in sodium phosphate buffer at pH 7 after 24 hrs by NMR analysis; format: physicochemical; conditions: read-out: Drug degradation
[9] = Drug degradation in MES buffer at pH 6.5 after 30 mins by NMR analysis; format: physicochemical; conditions: read-out: Drug degradation
[10] = Drug degradation in MES buffer at pH 6.5 after 1 hr by NMR analysis; format: physicochemical; conditions: read-out: Drug degradation
[11] = Drug degradation in MES buffer at pH 6 after 30 mins by NMR analysis; format: physicochemical; conditions: read-out: Drug degradation
[12] = Drug degradation in MES buffer at pH 6 after 1 hr by NMR analysis; format: physicochemical; conditions: read-out: Drug degradation
[13] = Drug degradation in MES buffer at pH 6 after 24 hrs by NMR analysis; format: physicochemical; conditions: read-out: Drug degradation
Acetylcholinesterase [14] = molecular target: Acetylcholinesterase (Musca domestica, UniProt Q7YWJ9); test: Inhibition of housefly CSMA AChE
Sequence of Acetylcholinesterase (Musca domestica, UniProt Q7YWJ9) (Q7YWJ9 whole entry): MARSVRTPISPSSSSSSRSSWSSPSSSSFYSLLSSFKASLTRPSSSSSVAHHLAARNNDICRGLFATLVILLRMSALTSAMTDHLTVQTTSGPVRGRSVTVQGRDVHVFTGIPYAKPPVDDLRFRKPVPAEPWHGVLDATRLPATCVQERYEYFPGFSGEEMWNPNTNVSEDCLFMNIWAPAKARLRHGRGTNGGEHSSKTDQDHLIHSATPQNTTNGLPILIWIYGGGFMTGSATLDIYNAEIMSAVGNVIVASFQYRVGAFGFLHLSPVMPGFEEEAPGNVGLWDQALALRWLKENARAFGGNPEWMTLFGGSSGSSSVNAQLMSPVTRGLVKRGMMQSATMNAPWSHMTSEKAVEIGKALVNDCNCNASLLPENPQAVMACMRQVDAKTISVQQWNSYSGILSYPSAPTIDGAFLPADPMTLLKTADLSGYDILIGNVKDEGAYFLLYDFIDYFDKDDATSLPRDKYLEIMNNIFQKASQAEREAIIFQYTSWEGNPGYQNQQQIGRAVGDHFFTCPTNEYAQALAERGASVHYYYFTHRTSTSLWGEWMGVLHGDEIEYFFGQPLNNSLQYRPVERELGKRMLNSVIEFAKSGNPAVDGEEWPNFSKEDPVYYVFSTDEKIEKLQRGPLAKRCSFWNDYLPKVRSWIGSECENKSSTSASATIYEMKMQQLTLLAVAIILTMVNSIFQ

Acetylcholinesterase [15] = molecular target: T1, Acetylcholinesterase; test: Inhibition of AChE (unknown origin)
Acetylcholinesterase [16] = molecular target: T1, Acetylcholinesterase; test: Irreversible inhibition of AChE (unknown origin)

T1 sequence (P22303 whole entry): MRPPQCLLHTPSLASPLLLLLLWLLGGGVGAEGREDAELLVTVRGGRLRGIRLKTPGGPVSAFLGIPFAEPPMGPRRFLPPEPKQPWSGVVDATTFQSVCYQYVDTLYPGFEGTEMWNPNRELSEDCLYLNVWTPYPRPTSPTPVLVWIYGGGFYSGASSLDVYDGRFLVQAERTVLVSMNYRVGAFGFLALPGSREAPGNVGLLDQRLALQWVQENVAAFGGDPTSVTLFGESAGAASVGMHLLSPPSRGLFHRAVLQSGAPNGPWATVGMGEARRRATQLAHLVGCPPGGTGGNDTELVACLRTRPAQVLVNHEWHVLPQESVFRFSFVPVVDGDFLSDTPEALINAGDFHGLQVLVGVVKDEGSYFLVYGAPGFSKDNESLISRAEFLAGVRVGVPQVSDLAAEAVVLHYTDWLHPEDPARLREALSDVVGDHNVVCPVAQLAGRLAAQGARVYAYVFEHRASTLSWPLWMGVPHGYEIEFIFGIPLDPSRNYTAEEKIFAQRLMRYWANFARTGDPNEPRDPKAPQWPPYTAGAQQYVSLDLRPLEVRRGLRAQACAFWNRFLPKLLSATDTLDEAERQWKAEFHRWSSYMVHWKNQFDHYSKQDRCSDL

Compound	IC50 (Acetylcholinesterase [1]) [µM]	IC50 (Acetylcholinesterase [2]) [µM]	degraded at 0.5 h [3] [%]	degraded at 1 h [4] [%]	degraded at 24 h [5] [%]	also measured
CCOP1(=O)OC(C)=C(C(=O)OC)CCC1(F)F (configuration not stated)	> 100	> 100	5	50	100	degraded at 0.5 h [6]: 20%; degraded at 1 h [7]: 34%; degraded at 24 h [8]: 100%; degraded at 0.5 h [9]: 2.8%; degraded at 1 h [10]: 7.2%; degraded at 0.5 h [11]: 0.5%; degraded at 1 h [12]: 4.1%; degraded at 24 h [13]: 65%
COP1(=O)OC[C@H]2COC(=O)C2=C(C)O1 (single isomer, unassigned) [CYCLOPHOSTIN]	0.04	–	–	–	–	IC50 (Acetylcholinesterase [14]): 0.00076 µM; IC50 (Acetylcholinesterase [15]): 0.045 µM; Ki (Acetylcholinesterase [16]): 0.14 µM
COC(=O)C1=C(C)OP(=O)(OC)CCC1 (configuration not stated)	12	26	2	2	9.6	–
CCOP1(=O)CCCC(C(=O)OC)=C(C)O1 (configuration not stated)	7.5	8.9	–	–	–	–
COP1(=O)OCCC(C(=O)OC(C)(C)C)=C(C)O1 (configuration not stated)	5.9	6.1	–	–	–	–
COP1(=O)OC[C@@H]2COC(=O)C2=C(C)O1 (single isomer, unassigned)	0.035	–	–	–	–	–
COC(=O)C1=C(C)OP(=O)(OC)OCC1 (configuration not stated)	1.03	1.04	0	4	57	–
